In ChEMBL document CHEMBL1208785, “Discovery of novel alpha7 nicotinic receptor antagonists” (Bioorg Med Chem Lett, 2010) one finds inhibition data, which are given here for 20 molecules.

The target in this experiment is Neuronal acetylcholine receptor subunit alpha-7 (Rattus norvegicus) (UniProt Q05941). Description: Displacement of [125I]alpha-bungarotoxin from alpha7 nicotinic acetylcholine receptor in rat brain membrane at 10 uM. The experiment is classed as cell membranes.

SMILES strings stand for the structures.

Neuronal acetylcholine receptor subunit alpha-7 (Rattus norvegicus), sequence (Q05941 whole entry): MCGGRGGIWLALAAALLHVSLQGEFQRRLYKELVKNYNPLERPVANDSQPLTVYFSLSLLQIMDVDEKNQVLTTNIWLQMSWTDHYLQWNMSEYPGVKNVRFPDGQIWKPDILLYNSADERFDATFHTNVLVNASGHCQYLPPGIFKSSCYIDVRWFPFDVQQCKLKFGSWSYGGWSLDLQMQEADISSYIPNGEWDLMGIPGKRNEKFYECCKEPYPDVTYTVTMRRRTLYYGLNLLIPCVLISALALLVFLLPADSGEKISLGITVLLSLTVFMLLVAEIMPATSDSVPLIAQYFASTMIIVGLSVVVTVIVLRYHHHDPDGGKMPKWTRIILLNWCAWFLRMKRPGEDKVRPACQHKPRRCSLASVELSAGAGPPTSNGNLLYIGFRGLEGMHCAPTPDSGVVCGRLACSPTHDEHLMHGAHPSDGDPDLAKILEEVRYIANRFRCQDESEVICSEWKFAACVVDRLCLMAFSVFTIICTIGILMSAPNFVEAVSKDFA

For `CN1CCC(N(C)C(=O)c2cnn(-c3ccccc3-c3ccco3)c2C2CC2)CC1`, the inhibition turned out to be 10.5%.
`COCCN1CCC(CN(C)C(=O)c2cn(Cc3ccccc3Cl)nn2)CC1` yielded an inhibition of 43%.
In the case of `CC(C)CN1CCC(CN(C)C(=O)c2cn(Cc3ccccc3Cl)nn2)CC1`, the inhibition was found to be 72.3%.
In turn, `CCCc1c(C(=O)NC2CCN(C)CC2)cnn1-c1ccccc1` registered an inhibition of 3.1%.
`Cc1c(C(=O)NC2CCN(Cc3ccccc3)CC2)cnn1-c1ccc(F)cc1` displayed an inhibition of 50%.
Regarding `Cc1c(C(=O)N(C)C2CCN(C)CC2)cnn1-c1ccc(Cl)cc1`, the inhibition stood at 13.5%.
Molecule `O=C(NCC1CCN(Cc2ccccc2)CC1)c1cn(Cc2ccc3ccccc3c2)nn1` had an inhibition of 70.5%.
Then `O=C(NCC1CCN(CCc2ccccc2)CC1)c1cn(Cc2ccccc2Cl)nn1`, with 23.4%; and `Cc1ccc(-c2c(C(=O)N(C)C3CCN(C)CC3)cnn2-c2ccccc2)cc1`, with 12.1%.
With `CC(C)CN1CCC(CN(C)C(=O)c2cn(Cc3cc(F)ccc3F)nn2)CC1`, the inhibition came to 59.2%.
In turn, `Cc1c(C(=O)N(C)C2CCN(C)CC2)cnn1-c1ccc(F)cc1` had an inhibition of 11.9%.
For the molecule `Cc1c(C(=O)NC2CCN(Cc3ccccc3)CC2)cnn1-c1ccc(Cl)cc1`, the inhibition worked out at 64.1%.
In turn, `O=C(NCC1CCN(CCc2ccccc2)CC1)c1cn(Cc2ccc(Cl)cc2)nn1` had an inhibition of 18.3%.
In turn, `CCCc1c(C(=O)NC2CCNCC2)cnn1-c1ccccc1` displayed an inhibition of 1%.
`Cc1ccccc1Cn1cc(C(=O)NCC2CCN(CCc3ccccc3)CC2)nn1` registered an inhibition of 25.2%.
Molecule `O=C(NCC1CCN(C2CCCC2)CC1)c1cn(Cc2ccccc2Cl)nn1` showed an inhibition of 21.6%.
In turn, `CCCc1c(C(=O)NC2CCN(Cc3ccccc3)CC2)cnn1-c1ccccc1` showed an inhibition of 83.8%.
On to `Cc1ccc(-c2c(C(=O)NC3CCN(C)CC3)cnn2-c2ccccc2)cc1`, for which the inhibition turned out to be 23.4%.
As to `COc1ccc(Cn2cc(C(=O)NCC3CCN(CCc4ccccc4)CC3)nn2)cc1`, the inhibition was found to be 9.5%.
As to `COCCN1CCC(CNC(=O)c2cn(Cc3ccc(Cl)cc3)nn2)CC1`, the inhibition amounted to 27.3%.
